US8802664B2 (Bioproject, priority 2010, dated 2014)
Like-named read-outs stand apart in the source and are kept apart here.

Target: T1, human H4 receptor (Homo sapiens, UniProt Q9H3N8)
T1 construct: expressed in transfected cells
Assay: [3H]Histamine binding on membranes of CHO cells stably expressing human H4 receptor
Protocol: CHO cells stably expressing human H4 receptor were grown until sub-confluence and centrifuged at 300 g 15 minutes at 4° C. Pellets were resuspended in buffer I Tris-HCl 50 mM, MgCl2 10 mM, NaCl 140 mM, pH=7.4 supplemented by a 1/50 dilution of a mix of protease inhibitors. The obtained suspension is stirred gently and submitted to a […] exerted through a syringe. The cell lysate is then centrifuged at 300 g 15 minutes at 4° C. in order to eliminate nucleus and cell scraps. The obtained supernatant was then centrifuged at 48000 g for 30 minutes at 4° C. The final pellet is resuspended in buffer I with a potter homogenizer. Aliquots were frozen in liquid nitrogen and stored until use at −80° C. Protein content is measured by the Bradford method.
Defreezed membranes were diluted at a final concentration of 20 μg/180 μL/well in a binding buffer containing 50 mM Tris/HCl, 0.5 mM EDTA, pH=7.4 and distributed in 96 well polystyrene microplate. [^3H] […] Non specific binding was estimated in the presence of 10 μM BP1.2404 (JNJ 7777120). The reaction was terminated by filtration through GF/B filters pre-soaked 2 hours at 4° C. in […]. Filters were rinsed 3 times with 250 μl of ice cold incubation binding buffer.
The filter-bound radioactivity was measured in a liquid scintillation counter Microbeta TRILUX® with 50 μl of scintillation fluid.
The hH4 binding investigated by use of [^3H]

[1] = human H4 receptor, evaluated in the GTPγ[35S] assay or in the [3H]histamine binding assay (not stated which per compound), Ki or IC50 class

Molecule	Ki or IC50 activity class [nM]	Ki or IC50 activity class [1] [nM]
CN1CCC(OC(c2cccc(OCCCN3CCN(C(=O)OC(C)(C)C)CC3)c2)c2nc3ccccc3[nH]2)CC1 (stereo not shown) [Example 360, 4-(3-{3-[(1H-benzimidazol-2-yl)(1-methylpiperidin-4-yloxy)methyl]phenoxy}propyl)piperazine-1-carboxylic acid tert-butyl ester]	< 1000	–
CN1CCC(OC(c2cccc(SCCn3nccn3)c2)c2nc3ccccc3s2)CC1 (stereo not shown) [Example 240, 2-{(1-methylpiperidin-4-yloxy)[3-(2-[1,2,3]triazol-2-yl-ethylsulfanyl)phenyl]methyl}benzothiazole]	< 300	–
CN1CCC(OC(c2cccc(OCCCCCN3CCN(C(=O)OC(C)(C)C)CC3)c2)c2nc3ccccc3[nH]2)CC1 (stereo not shown) [Example 391, 4-(5-{3-[(1H-benzimidazol-2-yl)(1-methylpiperidin-4-yloxy)methyl]phenoxy}pentyl)piperazine-1-carboxylic acid tert-butyl ester]	< 1000	–
CN1CCC(OC(c2cccc(I)c2)c2nc3ccccc3s2)CC1 (single isomer, unassigned) [Example 117, 2-[(3-iodophenyl)(1-methylpiperidin-4-yloxy)methyl]benzothiazole]	< 30	–
CN1CCC(OC(c2cccc(N3CCC(O)C3)c2)c2nc3ccccc3s2)CC1 (stereo not shown) [Example 406, 1-{3-[benzothiazol-2-yl(1-methylpiperidin-4-yloxy)methyl]phenyl}pyrrolidin-3-ol]	< 30	–
CN1CCC(OC(c2cccc(C#CCCCCNC(=N)NC(=O)OC(C)(C)C)c2)c2nc3ccccc3[nH]2)CC1 (stereo not shown) [Example 345, N-tert-butoxycarbonyl-N′-(6-{3-[(1H-benzimidazol-2-yl)(1-methylpiperidin-4-yloxy)methyl]phenyl}hex-5-ynyl)guanidine]	< 300	–
CN1CCC(OC(c2cccc(SCCCCCCO)c2)c2nc3ccccc3[nH]2)CC1 (stereo not shown) [Example 295, 6-{3-[(1H-benzimidazol-2-yl)(1-methylpiperidin-4-yloxy)methyl]phenylsulfanyl}hexan-1-ol]	< 300	–
CN1CCC(OC(c2cccc(CCc3cn(C)cn3)c2)c2nc3ccccc3s2)CC1 (stereo not shown) [Example 306, 2-[{3-[2-(1-methyl-1H-imidazol-4-yl)ethyl]phenyl}(1-methylpiperidin-4-yloxy)methyl]benzothiazole]	< 300	–
CN1CCC(OC(c2cccc(-c3ccccc3)c2)c2nc3ccccc3s2)CC1 (stereo not shown) [Example 53, 2-[biphenyl-3-yl(1-methylpiperidin-4-yloxy)methyl]benzothiazole]	< 300	–
CN1CCC(OC(c2cccc(C#CCNC(=N)N)c2)c2nc3ccccc3s2)CC1 (stereo not shown) [Example 373, N-(3-{3-[benzothiazol-2-yl(1-methylpiperidin-4-yloxy)methyl]phenyl}prop-2-ynyl)guanidine]	< 30	–
CN1CCC(OC(c2cccc(OCC3CCCNC3)c2)c2nc3ccccc3s2)CC1 (stereo not shown) [Example 378, 2-{(1-methylpiperidin-4-yloxy)[3-(piperidin-3-ylmethoxy)phenyl]methyl}benzothiazole]	< 1000	–
CN1CCC(OC(c2cccc(OCc3cccnc3)c2)c2nc3ccccc3s2)CC1 (stereo not shown) [Example 284, 2-{(1-methylpiperidin-4-yloxy)[3-(pyridin-3-ylmethoxy)phenyl]methyl}benzothiazole]	< 300	–
CN1CCC(OC(c2cccc(SCCNC3=NCCN3)c2)c2nc3ccccc3[nH]2)CC1 (stereo not shown) [Example 317, (2-{3-[(1H-benzimidazol-2-yl)(1-methylpiperidin-4-yloxy)methyl]-phenylsulfanyl}ethyl)(4,5-dihydro-1H-imidazol-2-yl)amine]	< 1000	–
CN1CCC(OC(c2cccc(I)c2)c2nc3ccccc3s2)CC1 (single isomer, unassigned) [Example 118, 2-[(3-iodophenyl)(1-methylpiperidin-4-yloxy)methyl]benzothiazole]	–	< 30
CN1CCC(NC(c2cccc(OCCC3=CCC4CC3C4(C)C)c2)c2nc3ccccc3[nH]2)CC1 (stereo not shown) [Example 181, ((1H-benzimidazol-2-yl)-{3-[2-(6,6-dimethyl-bicyclo[3.1.1]hept-2-en-2-yl)ethoxy]phenyl}methyl)(1-methylpiperidin-4-yl)amine]	< 30	–
CCc1cccc(C(OC2CCN(C)CC2)c2nc3ccccc3s2)c1 (stereo not shown) [Example 152, 2-[(3-ethylphenyl)(1-methylpiperidin-4-yloxy)methyl]benzothiazole]	< 30	–
CN1CCC(OC(c2cccc(OCCCCN3CCOCC3)c2)c2nc3ccccc3[nH]2)CC1 (stereo not shown) [Example 332, 2-{(1-methylpiperidin-4-yloxy)[3-(4-morpholin-4-yl-butoxy)phenyl]methyl}-1H-benzimidazole]	< 1000	–
CN1CCC(OC(c2cccc(SCCCN)c2)c2nc3ccccc3s2)CC1 (stereo not shown) [Example 314, 3-{3-[benzothiazol-2-yl(1-methylpiperidin-4-yloxy)methyl]phenylsulfanyl}propylamine]	< 30	–
CN1CCC(OC(c2cccc(C(=O)N(C)Cc3ccccc3)c2)c2nc3ccccc3s2)CC1 (stereo not shown) [Example 219, 3-[benzothiazol-2-yl(1-methylpiperidin-4-yloxy)methyl]-N-benzyl-N-methylbenzamide]	< 1000	–
CCN1CCC(OC(c2cccc(OCCN)c2)c2nc3ccccc3s2)CC1 (stereo not shown) [Example 290, 2-{3-[benzothiazol-2-yl(1-ethyl-piperidin-4-yloxy)methyl]phenoxy}ethylamine]	< 300	–
CCCCCCc1cccc(C(NC2CCN(C)CC2)c2nc3ccccc3[nH]2)c1 (stereo not shown) [Example 76, [(1H-benzimidazol-2-yl)(3-hexylphenyl)methyl](1-methylpiperidin-4-yl)amine]	< 300	–
CN1CCC(OC(c2cccc(-c3cccc(CO)c3)c2)c2nc3ccccc3[nH]2)CC1 (stereo not shown) [Example 86, {3′-[(1H-benzimidazol-2-yl)(1-methylpiperidin-4-yloxy)methyl]biphenyl-3-yl}methanol]	< 300	–
CN1CCC(OC(c2cccc(OS(=O)(=O)C(F)(F)F)c2)c2nc3ccccc3s2)CC1 (stereo not shown) [Example 71, trifluoromethanesulfonic acid 3-[benzothiazol-2-yl(1-methylpiperidin-4-yloxy)methyl]phenyl ester]	< 300	–
CN1CCC(OC(c2cccc(CCCCN)c2)c2nc3ccccc3s2)CC1 (stereo not shown) [Example 366, 4-{3-[benzothiazol-2-yl(1-methylpiperidin-4-yloxy)methyl]phenyl}butylamine]	< 30	–
CN1CCC(OC(c2cccc(C#CCCCCN)c2)c2nc3ccccc3s2)CC1 (stereo not shown) [Example 319, 6-{3-[benzothiazol-2-yl(1-methylpiperidin-4-yloxy)methyl]phenyl}hex-5-ynylamine]	< 30	–

More lines, now with the values ahead:

Ki or IC50 activity class [nM]	Ki or IC50 activity class [1] [nM]	Molecule
< 30	–	CN1CCC(OC(c2cccc(SCC3CNC(=O)O3)c2)c2nc3ccccc3[nH]2)CC1 (stereo not shown) [Example 457]
< 30	–	CN1CCC(OC(c2cccc(C#CCCCN)c2)c2nc3cc(F)ccc3[nH]2)CC1 (stereo not shown) [Example 438, 5-{3-[(5-fluoro-1H-benzimidazol-2-yl)(1-methylpiperidin-4-yloxy)methyl]phenyl}pent-4-ynylamine]
< 1000	–	CN1CCC(OC(c2cccc(N3CCC(F)(F)C3)c2)c2nc3ccccc3[nH]2)CC1 (stereo not shown) [Example 491]
< 300	–	CC(=O)OC1CCN(c2cccc(C(OC3CCN(C)CC3)c3nc4ccccc4s3)c2)CC1 (stereo not shown) [Example 413, acetic acid 1-{3-[benzothiazol-2-yl(1-methylpiperidin-4-yloxy)methyl]phenyl}piperidin-4-yl ester]
< 300	–	CN1CCC(OC(c2cccc(SCCCCNC(=N)N)c2)c2nc3ccccc3[nH]2)CC1 (stereo not shown) [Example 444, N-(4-{3-[(1H-benzimidazol-2-yl)(1-methylpiperidin-4-yloxy)methyl]phenylsulfanyl}butyl)guanidine]
< 1000	–	CN1CCC(OC(c2ccc([N+](=O)[O-])cc2)c2nc3ccccc3[nH]2)CC1 (stereo not shown) [Example 447, 2-[(1-methylpiperidin-4-yloxy)(4-nitrophenyl)methyl]-1H-benzimidazole]
< 30	–	CN1CCC(OC(c2cccc(C=CCNC(=N)N)c2)c2nc3ccccc3[nH]2)CC1 (stereo not shown) [Example 499]
< 30	–	CN1CCC(OC(c2cccc(C=CCCCN)c2)c2nc3ccccc3[nH]2)CC1 (stereo not shown) [Example 421, 5-{3-[(1H-benzimidazol-2-yl)(1-methylpiperidin-4-yloxy)methyl]phenyl}pent-4-enylamine]
–	< 30	4-[benzothiazol-2-yl(3-bromo-phenyl)methoxy]-1,1-dimethylpiperidinium [Example 188]
< 300	–	CN1CCC(OC(c2cccc(SCCCCCCNC(=N)N)c2)c2nc3ccccc3[nH]2)CC1 (stereo not shown) [Example 458]
< 30	–	CN1CCC(OC(c2cccc(N3CCC(=O)C3)c2)c2nc3ccccc3s2)CC1 (stereo not shown) [Example 443, 1-{3-[benzothiazol-2-yl(1-methylpiperidin-4-yloxy)methyl]phenyl}pyrrolidin-3-one]
< 300	–	CN1CCC(OC(c2cccc(OCCCF)c2)c2nc3ccccc3[nH]2)CC1 (stereo not shown) [Example 475]
